Measurements from patent US12692513B2, “Prostate neoantigens and their uses” (Janssen Biotech, Inc., priority 2020, dated 2026).

B1: P76 (peptide, listed as Homo sapiens)
chain: VFFKRAAEGFFRMNKLKESSDTNPKPYCMAAPMGLTENNRNRKKSYRETNLKAVSWPLNHT
B2: P77 (peptide, listed as Homo sapiens)
chain: VFFKRAAEGFFRMNKLKESSDTNPKPYCMAAPMGLTENNRNRKKSYRETNLKAVSWPLNHT
B3: P19 (peptide, listed as Homo sapiens)
chain: WTPIPVLTRWPLPHPPPWRRATSCRMARSSPSATSGSSVRRRCSSLPSWVWNLAASTRPRSTPS

Test system: CD8+ T cells in PBMCs from patients with metastatic castrate-resistant prostate cancer
Test: Patient PBMC restimulation assay (TNFα+IFNγ+ CD8+ T cells)
Assay type: cell-based, human
Conditions: TNFα+IFNγ+CD8+ T cells; highest across PBMC donors; 9mer peptide
Description: PBMCs from human patients with metastatic castrate-resistant prostate cancer were thawed using media (RPMI 1640 supplemented with Glutamax, 10% HI FBS, and IX Sodium Pyruvate). Cells were counted and plated in a 96 well round bottom microplate at a concentration of 250,000 viable cells per well. Lyophilized peptides were solubilized in 100% DMSO and diluted in media to 10 μg/mL. Neoantigen peptides were added in equal volume to PBMCs for a final concentration of 5 μg/mL. CEF Peptide Pool “Plus” (Cellular Technologies, Ltd.) was utilized as a positive control and DMSO at the same final concentration as the experimental peptides was utilized as a negative control. Human IL-15 (Peprotech) was added to all wells at final concentration of 10 ng/mL.
Plates were incubated at 37° C. (5% CO2) for a total of 13 days. Media was refreshed every 2 days with IL-15 (10 ng/mL final concentration) and IL-2 (R&D systems, 10 IU/mL final concentration). On day 12, PBMCs were re-stimulated with identical experimental peptides or controls, at same concentration as peptide stimulation on Day 1. After 1-hour incubation, protein Inhibitor Cocktail (eBioscience) was added to every well and plate was incubated overnight.
On day 13, cells were stained for intracellular flow cytometry analysis. The cells were washed with PBS and stained with Live/Dead Fixable Aqua Dead Cell stain (ThermoFisher). Following the live/dead stain, cells were blocked using Biotin-Free Fc Receptor Blocker (Accurate Chemical & Scientific Corp). Extracellular cellular flow panel (1 μL/antibody per well in 50 μL) consisted of CD3 PerCP-Cy5.5 (Biolegend), CD4 BV421 (Biolegend), and CD8 APC-Cy7 (Biolegend). After extracellular staining, cells were fixed using Foxp3/Transcription Factor Staining Buffer Set (eBioscience) and stained for intracellular proteins (1:50 dilution) using TNFα FITC (R&D Systems) and IFNγ BV785 (Biolegend). Cells were washed and resuspended in stain buffer and analyzed using a BD Celesta flow cytometer.
Flow cytometry cell staining analysis was completed using Flow Jo v10. Cells were gated on live, singlet, CD3+ cells. The CD8+ T cells were analyzed for TNFα/IFNγ expression and the frequency of double positive TNFα/IFNγ CD8+ T cells was recorded. Responses were assessed to be positive when the frequency of double positive TNFα/IFNγ CD8+ T cells due to stimulation with an experimental peptide was increased greater than or equal to 2-fold over the DMSO only negative control for that patient. Peptides were analyzed in 1 to 7 patient samples.
The 9 mer fragments shown in Table 13 were assessed for their ability to activate T cells using the Patient PBMC restimulation assay described in Example 1 using TNFα and IFNγ production by CD8^+ T cells as a readout. Self-antigens shown in Table 15 were also used in the assays. […] PBMCs from ten patients were evaluated.

Row | Molecule | Maximum fold change over negative control
1 | SLYHREKQLIAMDSAI (listed as Homo sapiens) [Neoantigen P22] | 5.00
2 | B1 | 2.30
3 | B2 | 3.24

Same assay, conditions: greatest frequency among all tested PBMC donors; 9mer peptide

Row | Molecule | Maximum frequency of TNFα+IFNγ+CD8+ T cells (Percent)
4 | P48 (VQPIARELYQFTFDLLI; listed as Homo sapiens) [Neoantigen P48] | 0.220%
5 | P59 (LHPDSGNMVENGCYLRR; listed as Homo sapiens) [Neoantigen P59] | 3.010%
6 | P27 (LHPQRETFTPRWSGANYWKLAFPVGAEGTFPAAATQRGVVRPA; listed as Homo sapiens) [Neoantigen P27] | 0.430%
7 | P61 (MFENGCYLGRQKRFKCE; listed as Homo sapiens) [Neoantigen P61] | 0.084%
8 | P60 (CYLRRQKRLKCEKQPGA; listed as Homo sapiens) [Neoantigen P60] | 0.340%
9 | YEAGMTLGGKILFFLFLLLPLSPFSLIF (listed as Homo sapiens) [Neoantigen P87] | 0.120%
10 | P17 (GVPGDSTRRAVRRMNTF; listed as Homo sapiens) [Neoantigen P17] | 0.130%
11 | P97 (GYLRMQGLMAQRLLLR; listed as Homo sapiens) [Neoantigen P97] | 0.160%
12 | P37 (MAGGVLRRLLCREPDRDGDKGASREETVVPLHIGDPVVLPGIGQCYSALF; listed as Homo sapiens) [Neoantigen P37] | 1.160%
13 | P58 (MMAEIISVHVPKILSGK; listed as Homo sapiens) [Neoantigen P58] | 5.370%
14 | P56 (PKSEVRAKCKFSILNAK; listed as Homo sapiens) [Neoantigen P56] | 1.620%
15 | P46 (DDRNTFDIVWWCPMSRLRLALTVPPSTTTTCVTVPAWAA; listed as Homo sapiens) [Neoantigen P46] | 0.140%
16 | NSKMALNSLNSIDDAQLTRIAPPRSHCCFWEVNAP (listed as Homo sapiens) [Neoantigen P35] | 0.064%
17 | P50 (QMAVIQYSCMGLMVFAM; listed as Homo sapiens) [Neoantigen P50] | 0.190%
18 | SLYHREKQLIAMDSAI (listed as Homo sapiens) [Neoantigen P22] | 0.120%
19 | GVPGDSTRRAVRRMNTF (listed as Homo sapiens) [Neoantigen P16] | 4.620%
20 | YEAGMTLGEKFRVGNCKHLKMTRP (listed as Homo sapiens) [Neoantigen P82] | 0.970%
21 | P73 (DSSGNLLERNSFEVRV; listed as Homo sapiens) [Neoantigen P73] | 0.110%
22 | B1 | 0.170%
23 | B2 | 0.160%
24 | B3 | 0.480%

Target: HLA-B*07:02 (Homo sapiens, UniProt P01889)
Test: In vitro binding to class I MHC (UV peptide exchange, HLA class I ELISA)
Conditions: 100% = same binding as positive control peptide
Description: The 9 mer peptides identified by bioinformatics analysis were analyzed for their binding propensities to 6 common HLA class I alleles (HLA-A*01:01, A*02:01, A*03:01, A*24:02, B*07:02, B*08:01). The principle of the method is briefly described below and consists of two parts, one involving exchange of peptide with a positive control induced by Ultraviolet (UV) radiation, and the second is an enzyme immunoassay to detect stable HLA-peptide and empty HLA complexes. HLA-bound peptides are critical for the stability of the HLA complex. A conditional HLA class I complex was stabilized by an UV-labile peptide utilizing a different peptide (Pos) for each HLA (Pos: HLA-A*01:01: […](SEQ ID NO: 409), HLA-A*02:01: […] (SEQ ID NO: 410), HLA-A*03:01: […] (SEQ ID NO: 411), HLA-A*24:02: […] (SEQ ID NO: 412), HLA-B*07:02: […] (SEQ ID NO: 413), HLA-B*08:01: […] (SEQ ID NO: 414), which could be cleaved by UV irradiation when bound to the HLA molecule. Upon cleavage, the resulting peptide fragments dissociated from the HLA class I complex since their length was insufficient to bind stably to HLA. Under the conditions in which peptide cleavage was performed (neutral pH, on melting ice), the peptide-free HLA complex remained stable.
The exchange efficiency between the peptide of interest and Pos was analyzed using an HLA class I ELISA. The combined technologies allowed the identification of ligands for an HLA molecule of interest which are potentially immunogenic.
Exchange control peptide Pos was a high affinity binder to the relevant HLA class I allele while exchange control peptide Neg was a non-binder. The UV control represented UV-irradiation of conditional HLA class I complex in the absence of a rescue peptide.
The HLA class I ELISA is an enzyme immunoassay based on the detection of beta2-microglobulin (B2M) of (peptide-stabilized) HLA class I complexes. To this end streptavidin was bound onto polystyrene microtiter wells. After washing and blocking, HLA complex present in exchange reaction mixtures or ELISA controls was captured by the streptavidin on the microtiter plate via its biotinylated heavy chain. Non-bound material was removed by washing. Subsequently, horseradish peroxidase (HRP)-conjugated antibody to human B2M was added. The HRP-conjugated antibody binds only to an intact HLA complex present in the microtiter well because unsuccessful peptide exchange results in disintegration of the original UV-sensitive HLA complex upon UV illumination. In the latter case B2M was removed during the washing step. After removal of non-bound HRP conjugate by washing, a substrate solution was added to the wells. A colored product formed in proportion to the amount of intact HLA complex present in the samples. After the reaction was terminated by the addition of a stop solution, absorbance was measured in a microtiter plate reader. The absorbance was normalized to the absorbance of an exchange control peptide (represents 100%). Suboptimal HLA binding of peptides with a moderate to low affinity for HLA class I molecules can also be detected by this ELISA technique (Rodenko, B et al. (2006) Nature Protocols 1: 1120-32).
Peptides that had 10% or greater exchange efficiency in one of the 6 HLA alleles were considered for further immunogenicity testing and analysis.
Binding of select neoepitopes to HLA-A*01:01, HLA-A*02:01, HLA-A*03:01, HLA-A*24:02, HLA-B*07:02 and HLA-B*08:01 was evaluated using the assay described in Example 1. […] As a criterion for further evaluation, peptides with an exchange rate of at least 10% with the corresponding Pos peptide for at least one of the 6 HLA alleles that we considered for further evaluation. The exchange rates with the allele specific Pos peptides, of the 24 neoantigens so identified are summarized below in Table 17. Higher percentages correspond to stronger binding to the HLA allele.

Row | Molecule | Exchange rate with allele specific Pos peptide, HLA-B*07:02
25 | SLYHREKQLIAMDSAI (listed as Homo sapiens) [Neoantigen P22] | 8.3%
